Reference: patent US20180265867A1, “NUCLEIC ACID MOLECULES WITH ENHANCED ACTIVITY” (priority 2015, published 2018)
d = 2'-deoxy (DNA); r = 2'-OH (RNA)

What was measured:
GAPDH = GAPDH gene knockdown in MG63 cells by RT-PCR; assay type: cell-based, human; conditions: for GAPDH gene knockdown: 50 nM, 24 h
Description: At 70% confluency, a day prior to transfection, the cells were seeded at a density of 35 000 cells in a 24-well cell culture plate to achieve 60-80% confluence at the day of transfection. Cell penetrating siRNAs (cpRNAs) of different lengths were transfected at 50 nM concentrations with Magnet Assisted Transfection (MATra-si) reagent for siRNAs (IBA GmbH, Göttingen, Germany) according to the manufacturers' protocols. Briefly, the siRNA was mixed with MATra-si reagent composed of supermagnetic ironoxide nanoparticles and incubated for 20 min. A complex was formed which was added to the cells to be transfected. A strong magnetic force was applied beneath the cells for 15 min. This forced the complex to be drawn into the cells by the magnetic field, and as a result the siRNA was delivered directly into the cytosol. For carrier free transfection experiments, cpRNAs were simply added to cells lines MG63, HOB, HCT116, fibroblasts and keratinocytes at 50 nM concentrations. Cells were also transfected with negative control siRNA (scrambled sequence) and cells left untreated were taken as controls. Each transfection was performed in triplicate. Post transfection, cells were incubated for 24 hours.
For the experiments involving lysosomotropic agent chloroquine (CQ), CQ was first neutralized to pH 7.4 using 1 M NaOH prior to use. MG63 cells were transfected with dT2, dT5, dT8, (dT5)2, as(dT5), and bl(dT5) siRNA in presence or absence of 100 μM CQ or using MATra-si and incubated for 24 h. Similar experiments were performed for other cpRNAs namely, dA5, dT5, dG5, (dT5)2, rA5 and dC5. For the control experiment, cells were either left untreated or transfected with negative control siRNA (scrambled sequence). Each transfection experiment was performed in triplicate.
After performing transfection experiments for 24 h, 48 h and 72 h respectively, total RNA was isolated from cells by adding 500 μl of lysis buffer (Qiagen, Germany), followed by homogenization of cell lysates using QIAshredder (Qiagen, Germany). RNA was extracted from cell lysates by RNeasy Mini Kit (Qiagen, Germany). All RNA samples were treated with DNase using TURBO-DNAfree (Ambion, USA). Agilent 2100 BioAnalyzer (Agilent Technologies, Palo Alto, Calif.) was used to confirm high quality of all RNA samples, which reports an RNA Integrity Number (RIN) that takes into account the entire electrophoretic RNA trace produced in the analysis. A RIN of greater than or equal to seven indicates the RNA is suitable for high stringency applications.
cDNA synthesis was performed in triplicate using total RNA reverse transcribed using High Capacity cDNA reverse transcription kit (Applied Biosystems, USA), with non-template control added to ensure a lack of signal in assay background. Reactions were incubated on a 96-well Applied Biosystems 9800 Fast Thermal Cycler PCR System at 37° C. for 60 min followed by 95° C. for 5 min. The real-time PCR reactions were carried out with 10 μl of 2×TaqMan® Universal PCR Master Mix, no AmpErase® UNG (Applied Biosystems, USA), 9 μl diluted cDNA, and 1 μl of TaqMan gene specific assay mix in a 20 μl final reaction volume. Reference gene beta-actin (ACTB) (Applied Biosystems, USA) was selected as control for normalization of TaqMan data. The assay included a no-template control, a standard curve of five serial dilution points (in steps of 3-fold) of cDNA mixture. Probes specific for IFN-α (Hs01022060_m1), IFN-β (Hs01077958_s1), IFN-γ (Hs00985251_m1), ACTB(Hs01060665_g1) and GAPDH (Hs02758991_g1) were purchased from Applied Biosystems. The amplification was carried out using the 7500 Fast Real-Time PCR System (Applied Biosystems, USA) using a 40-cycle program. The 7500 software automatically calculates raw Ct (cycle threshold) values. Data from samples with a Ct value equal to or below 35 were further analyzed. […]

MG63 cells = experiment: Fluorescence / confocal microscopy of cellular distribution in MG63 cells; assay type: cell-based, human; conditions: fluorescently labelled, transfection reagent free
Description: Cellular uptake experiments were performed by plating cells (1×10^4) in an 8 well chamber slide. At 70% confluency, the cells were transfected with 50 nM Cy3-cpRNA and incubated at 37° C. for 24 h. Control wells were left untreated. Each transfection was performed in triplicate. […] The slides were mounted using Vectashield mounting medium containing 4′, 6-diamidino-2-phenylindole (DAPI) (Vector Labs, Burlingame, Calif.) to stain the nuclei of cells.
MG63—human osteosarcoma cells were cultured in α-MEM (Sigma-Aldrich, Haverhill, UK) medium containing 10% FBS, 1% L-Glutamine, and 1% antibiotics (PeSt) at 37° C. with 5% CO2. One day prior to the siRNA treatment, 35,000 cells were plated per each well of a 24-well plate. On the experiment day, cells were replaced with 10% heat inactivated-FBS containing α-MEM medium with 1% L-Glutamine, and 1% antibiotics (PeSt). Fluorescently (Cy3) labelled CP-siRNA and nicked CP-siRNA having GAPDH targeting sequence (final concentration: 50 nM) was given to the each well. After 24 hours the cells were washed with PBS and fixed with 4% formaldehyde for 20 mins at room temperature and then washed twice with PBS. DAPI (1 ug/ml in PBS) was added to cells for 5 mins and then washed with PBS. The cells were then visualized in Nikon TiU at 20×+1.5× and analysed with the Nikon Imaging software.

[1] = MG63 cells, MATra-si transfection
[2] = MG63 cells, carrier-free transfection

Substance | GAPDH gene knockdown (GAPDH; [1]) | GAPDH gene knockdown (GAPDH; [2]) | cellular distribution (MG63 cells) | GAPDH mRNA knockdown efficiency over time (GAPDH; MG63, 50 nM, 24, 48 and 72 h, cpRNA without transfection reagent vs canonical siRNA with transfection reagent) | RNAi activity among different 5-nt candidates (GAPDH; MG63 cells, FIG. 2B) | enhancement in activity compared to canonical siRNA (GAPDH; [1])
dT2: Canonical GAPDH siRNA, sense SEQ ID NO: 1, antisense SEQ ID NO: 2, dTdT 3′-overhang on both strands (sense CCGAGCCACAUCGCUCAGATT; antisense UCUGAGCGAUGUGGCUCGGTT; sugars from the 5' end r19 d2, backbone not given here) [reference compound] | 60% | 28% | localized distribution to endosome | – | – | –
dT5: GAPDH siRNA, sense SEQ ID NO: 3 with dT5 3′-overhang, antisense SEQ ID NO: 2 with dT2 (sense CCGAGCCACAUCGCUCAGATTTTT; antisense UCUGAGCGAUGUGGCUCGGTT; sense: sugars from the 5' end r19 d5, backbone not given here; antisense: sugars from the 5' end r19 d2, backbone not given here) | – | 80% | perinuclear localization within cytosol | higher gene knockdown efficiency for over 72 hrs | highest RNAi activity | 20%
